Test results from patent publication US20100267561A1, “HERBICIDAL PYRIDAZINONE DERIVATIVES” (priority 2007, published 2010).
Read-outs that look alike come from different tables or passages of the source.

Assays:
Type in all cases: in vivo
[1] = tested on: cocklebur (Xanthium strumarium); assay: Test B pre-/postemergence plant response; details: for pest or weed control at 31 g/ha: 31 g ai/ha; for pest or weed control at 62 g/ha: 62 g ai/ha, 100 complete control
Outline: (§1)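 Seeds were sown and sprayed preemergence, while plants at 2 to 18 cm (1- to 4-leaf stage) got postemergence sprays. Compounds were formulated in a non-phytotoxic solvent mixture with surfactant. After 13 to 15 days in a greenhouse, injury was rated visually against untreated controls, 0 (no effect) to 100 (complete control).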

[2] = tested on: bermudagrass (Cynodon dactylon); assay: Test B pre-/postemergence plant response; details: for pest or weed control at 31 g/ha: 31 g ai/ha; for pest or weed control at 62 g/ha: 62 g ai/ha, 100 complete control
Outline: as §1

[3] = tested on: yellow nutsedge (Cyperus esculentus); assay: Test B pre-/postemergence plant response; details: for pest or weed control at 31 g/ha / pest or weed control at 62 g/ha: Cyperus, read-out: Plant response rating, Nutsedge, Yellow; for pest or weed control at 31 g/ha: 31 g ai/ha; for pest or weed control at 62 g/ha: 62 g ai/ha, 100 complete control
Outline: as §1

[4] = tested on: chickweed (Stellaria media); assay: Test B postemergence plant response; details: for Plant response rating, Chickweed: Postemergence
Outline: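 Test compounds were applied postemergence to plants 2 to 18 cm tall (1- to 4-leaf stage). After 13 to 15 days in a greenhouse, each species was visually compared with untreated controls and rated 0 (no effect) to 100 (complete control).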

[5] = tested on: giant foxtail (Setaria faberi); assay: Test A pre-/postemergence plant response; details: Setaria faberi, 240 h, read-out: Plant response rating, Foxtail, Giant; for pest or weed control at 31 g/ha: 31 g ai/ha; for pest or weed control at 125 g/ha: 125 g ai/ha
Outline: (§2)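 Seeds sown in loam–sand blend; test chemicals in non-phytotoxic solvent with surfactant applied preemergence as directed soil spray and, concurrently, postemergence to plants 2–10 cm tall at one- to two-leaf stage. Greenhouse ~10 days, then visual injury rating vs untreated controls on 0–100 scale (0 = no effect, 100 = complete control).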

[6] = tested on: large crabgrass (Digitaria sanguinalis); assay: Test A pre-/postemergence plant response; details: Digitaria sanguinalis, 240 h, read-out: Plant response rating, Crabgrass, Large; for pest or weed control at 31 g/ha: 31 g ai/ha; for pest or weed control at 125 g/ha: 125 g ai/ha
Outline: as §2

[7] = tested on: wheat (Triticum aestivum); assay: Test A pre-/postemergence plant response; details: Triticum aestivum, 240 h, read-out: Plant response rating, Wheat; for plant injury at 31 g/ha: 31 g ai/ha; for plant injury at 125 g/ha: 125 g ai/ha
Outline: as §2

[8] = tested on: barnyardgrass (Echinochloa crus-galli); assay: Test A pre-/postemergence plant response; details: Echinochloa crus-galli, 240 h, read-out: Plant response rating, Barnyardgrass; for pest or weed control at 31 g/ha: 31 g ai/ha; for pest or weed control at 125 g/ha: 125 g ai/ha
Outline: as §2

[9] = tested on: pigweed (Amaranthus retroflexus); assay: Test A pre-/postemergence plant response; details: Amaranthus retroflexus, 240 h, read-out: Plant response rating, Pigweed; for pest or weed control at 31 g/ha: 31 g ai/ha; for pest or weed control at 125 g/ha: 125 g ai/ha
Outline: as §2

corn (Zea mays) = assay: Test A pre-/postemergence plant response; details: Zea mays, 240 h; for Corn plant response rating (crop injury, 0 = no effect, 100 = complete kill) at 31 g/ha: 31 g ai/ha; for Corn plant response rating (crop injury, 0 = no effect, 100 = complete kill) at 125 g/ha: 125 g ai/ha
Outline: as §2

[10] = 8 g ai/ha, postemergence, 0-100 scale
[11] = Preemergence, 8 g ai/ha, scale 0 to 100 (0 no effect, 100 complete control)
[12] = Preemergence, 16 g ai/ha, scale 0 to 100
[13] = post-emergence, Postemergence, 0 to 100 scale (0 no effect, 100 complete control)
[14] = post-emergence, Postemergence, 0 to 100 scale, 0 no effect, 100 complete control
[15] = pre-emergence, Preemergence, 0 to 100 scale, 0 is no effect, 100 is complete control
[16] = pre-emergence, Preemergence, 0 to 100 scale (0 no effect, 100 complete control)

Cc1cc(-c2ccc(Br)cc2)nn1-c1c(OC(=O)C2CC2)cnn(C(=O)C2CC2)c1=O [Compound 80, 5-[3-(4-bromophenyl)-5-methyl-1H-pyrazol-1-yl]-1-(cyclopropylcarbonyl)-1,6-dihydro-6-oxo-4-pyridazinyl cyclopropanecarboxylate]
Cocklebur plant response rating [1, 10]: 0 | Cocklebur plant response rating [1, 11]: 0 | Cocklebur plant response rating [1, 12]: 0 | pest or weed control at 16 g/ha ([1]; Xanthium strumarium, post-emergence, Postemergence, 16 g ai/ha, scale 0 to 100, read-out: Plant response rating, Cocklebur): 0% | pest or weed control at 31 g/ha ([1]; Xanthium strumarium, post-emergence, Postemergence, scale 0 to 100, read-out: Plant response rating, Cocklebur): 0% | pest or weed control at 62 g/ha ([1]; Xanthium strumarium, post-emergence, Postemergence, scale 0 to 100, 0 no effect, read-out: Plant response rating, Cocklebur): 0% | pest or weed control at 31 g/ha ([1]; Xanthium strumarium, pre-emergence, Preemergence, scale 0 to 100 (0 no effect, 100 complete control), read-out: Plant response rating, Cocklebur): 0% | pest or weed control at 62 g/ha ([1]; Xanthium strumarium, pre-emergence, Preemergence, 0 to 100 scale, 0 no effect, read-out: Plant response rating, Cocklebur): 0% | Bermudagrass plant response rating [2, 10]: 85 | pest or weed control at 16 g/ha ([2]; Cynodon dactylon, post-emergence, Postemergence, 16 g ai/ha, scale 0 to 100, read-out: Plant response rating, Bermudagrass): 95% | pest or weed control at 31 g/ha ([2]; Cynodon dactylon, post-emergence, Postemergence, scale 0 to 100, read-out: Plant response rating, Bermudagrass): 100% | pest or weed control at 62 g/ha ([2]; Cynodon dactylon, post-emergence, Postemergence, scale 0 to 100, 0 no effect, read-out: Plant response rating, Bermudagrass): 100% | pest or weed control at 31 g/ha ([2]; Cynodon dactylon, pre-emergence, Preemergence, scale 0 to 100 (0 no effect, 100 complete control), read-out: Plant response rating, Bermudagrass): 100% | pest or weed control at 62 g/ha ([2]; Cynodon dactylon, pre-emergence, Preemergence, 0 to 100 scale, 0 no effect, read-out: Plant response rating, Bermudagrass): 100% | Bermudagrass plant response rating [2, 11]: 50 | Bermudagrass plant response rating ([2]; Preemergence, 16 g ai/ha, scale 0 to 100 (0 no effect, 100 complete control)): 100 | Nutsedge, Yellow plant response rating [3, 10]: 0 | Nutsedge, Yellow plant response rating ([3]; 16 g ai/ha, postemergence, 0-100 scale): 0 | pest or weed control at 31 g/ha ([3]; post-emergence, Postemergence, scale 0 to 100): 0% | pest or weed control at 62 g/ha ([3]; post-emergence, Postemergence, scale 0 to 100, 0 no effect): 0% | pest or weed control at 31 g/ha ([3]; pre-emergence, Preemergence, scale 0 to 100 (0 no effect, 100 complete control)): 0% | pest or weed control at 62 g/ha ([3]; pre-emergence, Preemergence, 0 to 100 scale, 0 no effect): 100% | Nutsedge, Yellow plant response rating [3, 11]: 0 | Nutsedge, Yellow plant response rating [3, 12]: 0 | Chickweed plant response rating [4, 10]: 0 | Plant response rating, Chickweed ([4]; 16 g ai/ha, scale 0 to 100): 0 | Plant response rating, Chickweed ([4]; 31 g ai/ha, scale 0 to 100): 0 | Plant response rating, Chickweed ([4]; 62 g ai/ha, scale 0 to 100, 0 no effect, 100 complete control): 0 | pest or weed control at 31 g/ha [5, 13]: 90% | pest or weed control at 125 g/ha [5, 14]: 100% | pest or weed control at 31 g/ha [5, 15]: 80% | pest or weed control at 125 g/ha [5, 16]: 100% | pest or weed control at 31 g/ha [6, 13]: 60% | pest or weed control at 125 g/ha [6, 14]: 100% | pest or weed control at 31 g/ha [6, 15]: 10% | pest or weed control at 125 g/ha [6, 16]: 100% | plant injury at 31 g/ha [7, 13]: 30% | plant injury at 125 g/ha [7, 14]: 70% | plant injury at 31 g/ha [7, 15]: 20% | plant injury at 125 g/ha [7, 16]: 80% | pest or weed control at 31 g/ha [8, 13]: 100% | pest or weed control at 125 g/ha [8, 14]: 100% | pest or weed control at 31 g/ha [8, 15]: 0% | pest or weed control at 125 g/ha [8, 16]: 100% | pest or weed control at 31 g/ha [9, 13]: 0% | pest or weed control at 125 g/ha [9, 14]: 0% | pest or weed control at 31 g/ha [9, 15]: 0% | pest or weed control at 125 g/ha [9, 16]: 0% | Corn plant response rating (crop injury, 0 = no effect, 100 = complete kill) at 31 g/ha (corn (Zea mays); [13]): 60% | Corn plant response rating (crop injury, 0 = no effect, 100 = complete kill) at 125 g/ha (corn (Zea mays); [14]): 100% | Corn plant response rating (crop injury, 0 = no effect, 100 = complete kill) at 31 g/ha (corn (Zea mays); [15]): 40% | Corn plant response rating (crop injury, 0 = no effect, 100 = complete kill) at 125 g/ha (corn (Zea mays); [16]): 60%
